Measured values: US6225478A, “Iridoid derivatives and neovascularization inhibitors containing the same as active ingredient” (Tsumura & Co., priority 1999, dated 2001)
In brackets after ≈: the same amount, converted by molar mass. Like-named read-outs stand apart in the source and are kept apart here.

What was measured:
Format in all cases: cell-based
[1] = test system: human umbilical-vein endothelial cells (HUVEC); test: Tube Formation Assay (TFA) Test, HUVEC in collagen gel; conditions: for inhibition at 1 µg/mL / inhibition at 10 µg/mL: Homo sapiens, HUVEC, read-out: TFA (inhibition rate, %)
Procedure, shortened: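 HUVEC (7th subculture, 1×10^5 cells/ml) attached to collagen gel for 2 h at 37 °C, given sample and overlaid with collagen, then cultured 20 h at 37 °C, 5% CO2 in M-199 with 20% FCS, 30 ng/ml b-FGF and 0.1 μM PMA. Tube length measured by image analysis; % inhibition relative to positive and negative controls.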

[2] = test system: human umbilical-vein endothelial cells (HUVEC); test: Cell Proliferation Assay (CPA) Test, HUVEC, MTT; conditions: M199 (2+) medium; for IC50: Homo sapiens, read-out: CPA (IC50 μg/ml)
Protocol: (§1) Furthermore, the sample liquids of compounds used in the CPA and CMA tests were prepared in the manner described below. Firstly, after weighing out each compound, a calculated amount of DMSO was added. After dissolving the compound in the DMSO, phosphate buffered physiological saline (PBS (-)) was added to bring the sample concentration to 1 mg/ml in PBS (-). The amount of DMSO used to dissolve the compounds was adjusted in advance to that the concentration of DMSO at that time was 5%. The resulting liquids were diluted 10-fold with 5% DMSO-PBS (-) solution to prepare sample solutions having a concentration of 0.1 mg/ml. In the TFA test, 320 μl of the prepared 1 mg/ml sample solutions were removed followed by addition of 680 μl of PBS (-) to prepare samples having a concentration of […]. Moreover, 100 μl of this solution was removed followed by addition of 900 μl of PBS (-) to dilute 10-fold and prepare samples having a concentration of 1 μg/ml. P [Cell Proliferation Assay (CPA) Test]
100 μl of the 7th subculture obtained from first generation human umbilical-vein endothelial cells (HUVEC) were disseminated in the wells (N=3) of a 96-well plate (Iwaki, Cat. #4860-010) at a cell concentration of 5×10^4 cells/ml. M-199 medium containing +20% FCS, 10 ng/ml of b-FGF and 10 ng/ml of EGF (abbreviated as "M199 (2+)") was used for the medium.
After culturing for 24 hours at 37° C. in the presence of 5% CO2 under the above conditions, 20 μl/well of MTT solution (solution containing 5 mg/ml of PBS (-)) were added to the control well followed by accurately culturing for 4 hours at 37° C. in the presence of 5% CO2. Following completion of culturing, 100 μl/well of a stop solution (0.001 N aqueous HCl solution containing 10% SDS) were added. On the other hand, 10 μl/well of sample solutions at concentrations of 1 mg/ml and 0.1 mg/ml were added to the other wells.
After culturing for 24 hours at 37° C. in the presence of 5% CO2, the medium was replaced and 100 μl/well of M199 (2+) were added. The samples were also replaced in each well at this time.
Moreover, after additionally culturing for 48 hours at 37° C. in the presence of 5% CO2, 20 μl/well of MTT solution were added to the wells containing sample and the control well followed by accurately culturing for 4 hours at 37° C. and adding 100 μl/well of stop solution.

[3] = test system: human umbilical-vein endothelial cells (HUVEC); test: Cell Migration Assay (CMA) Test, HUVEC (% relative to control); conditions: for activity at 1 µg/mL / activity at 10 µg/mL: Homo sapiens, HUVEC
Protocol: as §1
After disseminating the 7th subculture of HUVEC obtained from the first generation in the same manner as above at 4 ml/well (3.0×10^5 cells/well) in a collagen-coated 6-well plate (NUNC), the cells were cultured for 48 hours at 37° C. in the presence of 5% CO2. The cells reached nearly a completely confluent state as a result of this culturing.
A double-edged, disposable razor blade was divided into four sections, of which one of those sections was pinched between a pair of forceps. Using this piece of razor blade, the cell surface in the above confluent state was scraped off. Two areas of the cell surface were scraped off in each well.
After washing the surface of the wells from which the cells had been scraped off with medium, 4.0 ml of fresh M199 (2+) medium were added followed by addition of 40 μl or 4 μl of sample solution (1 mg/ml). The cells were cultured for 24 hours at 37° C. in the presence of 5% CO2. After discarding the culture liquid, the cells were fixed for 30 minutes with methanol. Next, after staining the cells for 4 hours with Giemsa stain, the plates were washed with tap water and air dried.
Measurement of cell migration was performed by microscopically counting the number of cells that had newly migrated within the range of a 1 mm×1 mm block. […] The total number of cells counted in blocks 1 through 5 were then totaled to determine the overall total number of cells. Four fields were counted for each well.
Evaluation was performed determining the cell migration (%) according to the following formula.
Cell migration rate=number of migrating cells to which sample was added×100/number of migrating of control (+)
Control (+) indicates the number of migrating cells in the control well containing M199 (2+).

[4] = 20 h, 1 μg/ml, 20 hours, 40% or less judged remarkable
[5] = 20 h, 10 μg/ml, 20 hours, 40% or less judged remarkable
[6] = 1 μg/ml, 24 hours, 60% or less = remarkable inhibition, read-out: CMA (% relative to control)
[7] = 10 μg/ml, 24 hours, 60% or less = remarkable inhibition, read-out: CMA (% relative to control)
[8] = 1 μg/ml, 20 hours, 40% or less judged remarkable
[9] = 10 μg/ml, 20 hours, 40% or less judged remarkable

| SMILES | inhibition at 1 µg/mL [1, 4] | inhibition at 10 µg/mL [1, 5] | IC50 [2] | activity at 1 µg/mL [3, 6] | activity at 10 µg/mL [3, 7] | further results |
| --- | --- | --- | --- | --- | --- | --- |
| CNC(=O)OC1OC=C(C(=O)OCc2ccco2)C2CC3OC3(C)C12 [compound 10, (1S,4aS,6S,7R,7aR)-6,7-epoxy-1,4a,5,6,7,7a-hexahydro-7-methyl-1-(methylcarbamoyloxy) cyclopenta [c]-pyrane-4-carboxy-lic acid furfurylester] | 28.6% | 27.7% | 93.3 µg/mL (≈ 267 µM) | 101% | 103% | – |
| O=c1[nH]cc(F)c(=O)[nH]1 [5-FU, 5-fluorouracil, reference compound] | – | – | 3.5 µg/mL (≈ 26.9 µM) | 102% | 92.9% | inhibition at 1 µg/mL [1, 8]: 42.4%; inhibition at 10 µg/mL [1, 9]: 52.3% |
| CCOC(=O)C1=CO[C@@H](OC(=O)NC)[C@@H]2[C@@H]1C[C@@H]1O[C@]21C [compound 4, (1S,4aS,6S,7R,7aR)-6,7-epoxy-1,4a,5,6,7,7a-hexahydro-7-methyl-1-(methylcarbamoyloxy) cyclopenta [c]-pyrane-4-carboxylic acid ethylester] | 40.5% | 5.6% | > 100 µg/mL | 70.8% | 53% | – |
| CNC(=O)OC[C@]12O[C@H]1C[C@@H]1C(C(=O)OC)=CO[C@@H](O)[C@@H]12 [Compound 60, (4aS,6S,7R,7aR)-6,7-epoxy-1-hydroxy-7-methylcarbamoyloxymethyl-1,4a,5,6,7a-pentahydro [c] pyrane-4-carboxylic acid methylester] | 32.7% | 41.5% | > 100 µg/mL | 87.1% | 96.3% | – |
| CNC(=O)O[C@@H]1OCC(C(=O)OC)[C@H]2C[C@@H]3O[C@]3(C)C12 (stereo in doubt) [Compound 55, (1S,4R,4aS,6S,7R,7aR)-6,7-epoxy-7-methyl-1-(methylcarbamoyloxy)-1,3,4,4a,5,6,7,7a-octahydrocyclopenta [c] pyrane-4-carboxylic acid methylester] | 13.9% | 3.8% | > 100 µg/mL | 97.8% | 91.8% | – |
| CNC(=O)O[C@@H]1OC=C(C(=O)OCCc2ccccc2)[C@H]2C[C@@H]3O[C@]3(C)[C@H]12 [compound 12, (1S,4aS,6S,7R,7aR)-6,7-epoxy-1,4a,5,6,7,7a-hexahydro-7-methyl-1-(methylcarbamoyloxy) cyclopenta [c]-pyrane-4-carboxylic acid phenylethylester] | 32.7% | 32.5% | > 100 µg/mL | 101% | 89.8% | – |
| CCCCCCNC(=O)C1=COC(OC(=O)NC)C2C1CC1OC12C [compound 17, (1S,4aS,6S,7R,7aR)-6,7-epoxy-1,4a5 6,7,7a-hexahydro-7-methyl-1-(methylcarbamoyloxy) cyclopenta [c]-pyrane-4-carboxylic acid n-hexylamide] | 19% | 23.4% | 69.1 µg/mL (≈ 196 µM) | 94.4% | 114% | – |
| CNC(=O)OC[C@@H]1[C@H](C)CC[C@@H]1C1(COC(=O)NC)CO1 (stereo partly drawn) [Compound 58, 2-[(1S,2R,3R)-2-(methylcarbamoyloxy)methyl-3-methylcyclopento-1-yl]-2,3-epoxy-propane-1-methylcarbamate] | – | – | – | – | – | TFA (inhibition rate, %) [1, 8]: 20.6%; TFA (inhibition rate, %) [1, 9]: 22.3%; CPA (IC50 μg/ml) [2]: > 100.0 µg/mL; CMA (% relative to control) ([3]; 1 μg/ml, 24 hours, 60% or less = remarkable inhibition): 121.6%; CMA (% relative to control) ([3]; 10 μg/ml, 24 hours, 60% or less = remarkable inhibition): 97.0% |
| COC(=O)C1=CO[C@H](OC(=O)NC(=O)CCl)[C@@H]2[C@@H]1C[C@@H]1O[C@]21C [compound 40, (1R,4aS,6S,7R,7aR)-1-(chloroacetylcarbamoyloxy)-6,7-epoxy-1,4a,5,6,7,7a-hexahydro-7-methylcyclopenta [c] pyrane-4-carboxylic acid methylester] | 32.8% | 23.8% | 58.1 µg/mL (≈ 168 µM) | 77.3% | 66.8% | – |
| CNC(=O)O[C@@H]1OC=C(C(=O)OC/C=C(\C)CCC=C(C)C)[C@H]2C[C@@H]3O[C@]3(C)[C@H]12 [compound 6, (1S,4aS,6S,7R,7aR)-6,7-epoxy-1,4a,5,6,7,7a-hexahydro-7-methyl-1-(methylcarbamoyloxy) cyclopenta [c]-pyrane-4-carboxylic acid geranyl ester] | 24.2% | 8.7% | > 100 µg/mL | 106% | 105% | – |
| CNC(=O)O[C@@H]1OC=C(C(=O)O)[C@H]2C[C@@H]3O[C@]3(C)[C@H]12 [compound 2, sodium (1S,4aS,6S,7R,7aR)-6,7-epoxy-1,4a,5,6,7,7a-hexahydro-7-methyl-1-(methylcarbamoyloxy) cyclopenta [c]-pyrane-4-carboxylic acid] | – | – | – | – | – | inhibition at 1 µg/mL ([1]; 20 h): 69.1%; inhibition at 10 µg/mL ([1]; 20 h): 56.9%; activity at 1 µg/mL ([3]; 24 h, read-out: CMA (% relative to control), 1 μg/ml, 60% or less = remarkable inhibition): 88.4%; activity at 10 µg/mL ([3]; 24 h, read-out: CMA (% relative to control), 10 μg/ml, 60% or less = remarkable inhibition): 95.8% |
| CCCCCCNC(=O)O[C@@H]1OC=C(C(=O)OC)[C@H]2C[C@@H]3O[C@]3(C)[C@H]12 [compound 33, (1S,4aS,6S,7R,7aR)-6,7-epoxy-1-(n-hexylcarbamoyloxy)-1,4a,5,6,7,7a-hexahydro-7-methylcyclopenta [c] pyrane-4-carboxylic acid methylester] | – | – | > 100 µg/mL | 109% | 102% | – |
| CN(C)c1ccc(O)c2c1C[C@H]1C[C@H]3[C@H](N(C)C)C(O)=C(C(N)=O)C(=O)[C@@]3(O)C(O)=C1C2=O [Minocycline, reference compound] | 42.1% | 56.7% | – | 67.3% | 51.6% | – |
| CO[C@@H]1[C@H](OC(=O)/C=C/C=C/C=C/C=C/C(=O)O)CC[C@]2(CO2)[C@H]1[C@@]1(C)O[C@@H]1CC=C(C)C [Fumagilline, reference compound] | – | – | 33.3 µg/mL (≈ 72.6 µM) | 95.5% | 74.2% | – |
